Values of other authors, collected in patent publication US11376263B2, “Cyproterone acetate compositions and uses thereof” (FORTRESS BIOTECH, INC., priority 2020, dated 2022).

Tests used:
[1] = daily administration

SMILES | time to CPA steady state [1] | AUC and Cmax in obese women versus normal weight women (obese vs normal weight women) | mean oral bioavailability (oral, large inter- and intraindividual variability)
CC(=O)O[C@]1(C(C)=O)CC[C@H]2[C@@H]3C=C(Cl)C4=CC(=O)[C@@H]5C[C@@H]5[C@]4(C)[C@H]3CC[C@@]21C [CPA, cyproterone acetate] | approximately 16 days | – | –
C#C[C@]1(O)CC[C@H]2[C@@H]3CCc4cc(O)ccc4[C@H]3CC[C@@]21C [EE, ethinylestradiol] | – | lower | approximately 45%
